Measured values published in patent US10532980B2, “N-methyl pyrazoles” (Prosetta Antiviral, Inc., priority 2015, dated 2020).

Test system: Influenza A virus (A/WSN/1933(H1N1))
Experiment: microbe, parasite or virus in culture
Format: cell-based
Settings: MDCK, 24 h with compound, then 2 h drug-free medium

Row | Compound | EC90
1 | Cn1nc(C2CC2)cc1C(=O)NCc1cccc(C(F)(F)F)c1F [Compound 1, 3-cyclopropyl-N-(2-fluoro-3-(trifluoromethyl)benzyl)-1-methyl-1H-pyrazole-5-carboxamide] | 400 nM
2 | CC(C)c1cc(C(=O)NCc2cccc(C(F)(F)F)c2F)n(C)n1 [Compound 2, N-(2 fluoro-3-(trifluoromethyl)benzyl)-3-isopropyl-1-methyl-1H pyrazole-5-carboxamide] | 100 nM
3 | Cn1nc(C2CC2)cc1C(=O)NCc1cccc(C(F)(F)F)c1Cl [Compound 3, N-(2-chloro-3-(trifluoromethyl)benzyl)-3-cyclopropyl-1-methyl-1H-pyrazole-5-carboxamide] | 1100 nM
4 | CC(C)c1cc(C(=O)NCc2cccc(C(F)(F)F)c2Cl)n(C)n1 [Compound 4, N-(2-chloro-3-(trifluoromethyl)benzyl)-3-isopropyl-1-methyl-1H-pyrazole-5-carboxamide] | 100 nM
5 | COc1cc(CNC(=O)c2cc(C(C)(C)C)nn2C)ccc1Cl [Compound 5, 3-(tert-butyl)-N-(4-chloro-3-methoxybenzyl)-1-methyl-1H-pyrazole-5-carboxamide] | 1500 nM
6 | COc1cc(CNC(=O)c2cc(C3CC3)nn2C)ccc1Cl [Compound 6, N-(4-chloro-3-methoxybenzyl)-3-cyclopropyl-1-methyl-1H-pyrazole-5-carboxamide] | 1500 nM
7 | Cn1nc(C(C)(C)C)cc1C(=O)NCc1cccc(OC(F)(F)F)c1F [Compound 7, 3-(tert-butyl)-N-(2-fluoro-3-(trifluoromethoxy)benzyl)-1-methyl-1H-pyrazole-5-carboxamide] | 1800 nM
8 | Cn1nc(C2CC2)cc1C(=O)NCc1cccc(OC(F)(F)F)c1F [Compound 8, 3-cyclopropyl-N-(2-fluoro-3-(trifluoromethoxy)benzyl)-1-methyl-1H-pyrazole-5-carboxamide] | 1500 nM
9 | CC(C)c1cc(C(=O)NCc2cccc(OC(F)(F)F)c2F)n(C)n1 [Compound 9, N-(2-fluoro-3-(trifluoromethoxy)benzyl)-3-isopropyl-1-methyl-1H-pyrazole-5-carboxamide] | 400 nM
10 | Cn1nc(C2CC2)cc1C(=O)NCc1cccc(OCC2CC2)c1F [Compound 10, 3-cyclopropyl-N-(3-(cyclopropylmethoxy)-2-fluorobenzyl)-1-methyl-1H-pyrazole-5-carboxamide] | 100 nM
11 | Cc1ccc(CNC(=O)c2cc(C(C)(C)C)nn2C)cc1Cl [Compound 11, 3-(tert-butyl)-N-(3-chloro-4-methylbenzyl)-1-methyl-1H-pyrazole-5-carboxamide] | 1500 nM
12 | COc1ccc(CNC(=O)c2cc(C(C)(C)C)nn2C)cc1Cl [Compound 12, 3-(tert-butyl)-N-(3-chloro-4-methoxybenzyl)-1-methyl-1H-pyrazole-5-carboxamide] | 1800 nM
13 | CCCOc1ccc(CNC(=O)c2cc(C(C)C)nn2C)cc1Cl [Compound 13, N-(3-chloro-4-propoxybenzyl)-3-isopropyl-1-methyl-1H-pyrazole-5-carboxamide] | 400 nM
14 | Cn1nc(C2CC2)cc1C(=O)NCc1ccc(OCC2CC2)c(Cl)c1 [Compound 14, N-(3-chloro-4-(cyclopropylmethoxy)benzyl)-3-cyclopropyl-1-methyl-1H-pyrazole-5-carboxamide] | 400 nM
15 | CC(C)c1cc(C(=O)NCc2ccc(OCC3CC3)c(Cl)c2)n(C)n1 [Compound 15, N-(3-chloro-4-(cyclopropylmethoxy)benzyl)-3-isopropyl-1-methyl-1H-pyrazole-5-carboxamide] | 400 nM
16 | CCOc1ccc(CNC(=O)c2cc(C(C)(C)C)nn2C)cc1Br [Compound 16, N-(3-bromo-4-ethoxybenzyl)-3-(tert-butyl)-1-methyl-1H-pyrazole-5-carboxamide] | 1000 nM
17 | CCOc1ccc(CNC(=O)c2cc(C(C)C)nn2C)cc1Br [Compound 17, N-(3-bromo-4-ethoxybenzyl)-3-isopropyl-1-methyl-1H-pyrazole-5-carboxamide] | 400 nM
18 | COc1c(Br)cccc1CNC(=O)c1cc(C2CC2)nn1C [Compound 18, N-(3-bromo-2-methoxybenzyl)-3-cyclopropyl-1-methyl-1H-pyrazole-5-carboxamide] | 1500 nM
19 | Cc1c(F)cccc1CNC(=O)c1cc(C2CC2)nn1C [Compound 19, 3-cyclopropyl-N-(3-fluoro-2-methylbenzyl)-1-methyl-1H-pyrazole-5-carboxamide] | 1500 nM
20 | Cc1cccc(CNC(=O)c2cc(C3CC3)nn2C)c1C [Compound 20, 3-cyclopropyl-N-(2,3-dimethylbenzyl)-1-methyl-1H-pyrazole-5-carboxamide] | 1500 nM
21 | Cc1cccc(CNC(=O)c2cc(C3CC3)nn2C)c1OC(F)F [Compound 21, 3-cyclopropyl-N-(2-(difluoromethoxy)-3-methylbenzyl)-1-methyl-1H-pyrazole-5-carboxamide] | 2000 nM
22 | Cc1c(CNC(=O)c2cc(C3CC3)nn2C)cccc1C(F)(F)F [Compound 22, 3-cyclopropyl-1-methyl-N-(2-methyl-3-(trifluoromethyl)benzyl)-1H-pyrazole-5-carboxamide] | 300 nM

Row | Compound | EC90
23 | COc1c(CNC(=O)c2cc(C3CC3)nn2C)cccc1C(F)(F)F [Compound 24, 3-cyclopropyl-N-(2-methoxy-3-(trifluoromethyl)benzyl)-1-methyl-1H-pyrazole-5-carboxamide] | 200 nM
24 | COc1c(CNC(=O)c2cc(C(C)C)nn2C)cccc1C(F)(F)F [Compound 25, 3-isopropyl-N-(2-methoxy-3-(trifluoromethyl)benzyl)-1-methyl-1H-pyrazole-5-carboxamide] | 400 nM
25 | COc1ccc(CNC(=O)c2cc(C3CC3)nn2C)cc1C(F)(F)F [Compound 26, 3-cyclopropyl-N-(4-methoxy-3-(trifluoromethyl)benzyl)-1-methyl-1H-pyrazole-5-carboxamide] | 800 nM
26 | COc1cc(CNC(=O)c2cc(C(C)(C)C)nn2C)ccc1C [Compound 27, 3-(tert-butyl)-N-(3-methoxy-4-methylbenzyl)-1-methyl-1H-pyrazole-5-carboxamide] | 1500 nM
27 | COc1cccc(CNC(=O)c2cc(C3CC3)nn2C)c1C [Compound 28, 3-cyclopropyl-N-(3-methoxy-2-methylbenzyl)-1-methyl-1H-pyrazole-5-carboxamide] | 1500 nM
28 | COc1cccc(CNC(=O)c2cc(C(C)C)nn2C)c1C [Compound 29, 3-isopropyl-N-(3-methoxy-2-methylbenzyl)-1-methyl-1H-pyrazole-5-carboxamide] | 1500 nM
29 | COc1cccc(CNC(=O)c2cc(C3CC3)nn2C)c1C(F)(F)F [Compound 30, 3-cyclopropyl-N-(3-methoxy-2-(trifluoromethyl)benzyl)-1-methyl-1H-pyrazole-5-carboxamide] | 300 nM
30 | COc1cccc(CNC(=O)c2cc(C(C)(C)C)nn2C)c1O [Compound 31, 3-(tert-butyl)-N-(2-hydroxy-3-methoxybenzyl)-1-methyl-1H-pyrazole-5-carboxamide] | 1000 nM
31 | COc1cccc(CNC(=O)c2cc(C(C)C)nn2C)c1OC [Compound 32, N-(2,3-dimethoxybenzyl)-3-isopropyl-1-methyl-1H-pyrazole-5-carboxamide] | 1000 nM
32 | CCCOc1c(CNC(=O)c2cc(C3CC3)nn2C)cccc1OC [Compound 33, 3-cyclopropyl-N-(3-methoxy-2-propoxybenzyl)-1-methyl-1H-pyrazole-5-carboxamide] | 1500 nM
33 | Cn1nc(C(C)(C)C)cc1C(=O)NCc1cccc(OC(F)(F)F)c1O [Compound 34, 3-(tert-butyl)-N-(2-hydroxy-3-(trifluoromethoxy)benzyl)-1-methyl-1H-pyrazole-5-carboxamide] | 1200 nM
34 | COc1c(CNC(=O)c2cc(C(C)(C)C)nn2C)cccc1OC(F)(F)F [Compound 35, 3-(tert-butyl)-N-(2-methoxy-3-(trifluoromethoxy)benzyl)-1-methyl-1H-pyrazole-5-carboxamide] | 200 nM
35 | COc1c(CNC(=O)c2cc(C3CC3)nn2C)cccc1OC(F)(F)F [Compound 36, 3-cyclopropyl-N-(2-methoxy-3-(trifluoromethoxy)benzyl)-1-methyl-1H-pyrazole-5-carboxamide] | 100 nM
36 | CCOc1cccc(CNC(=O)c2cc(C(C)(C)C)nn2C)c1OC(F)F [Compound 37, 3-(tert-butyl)-N-(2-(difluoromethoxy)-3-ethoxybenzyl)-1-methyl-1H-pyrazole-5-carboxamide] | 100 nM
37 | CCOc1cccc(CNC(=O)c2cc(C3CC3)nn2C)c1OC(F)F [Compound 38, 3-cyclopropyl-N-(2-(difluoromethoxy)-3-ethoxybenzyl)-1-methyl-1H-pyrazole-5-carboxamide] | 100 nM
38 | COc1c(CNC(=O)c2cc(C3CC3)nn2C)cccc1OCC1CCCC1 [Compound 39, N-(3-(cyclopentylmethoxy)-2-methoxybenzyl)-3-cyclopropyl-1-methyl-1H-pyrazole-5-carboxamide] | 100 nM
39 | Cc1cc(CNC(=O)c2cc(C(C)C)nn2C)cc(C)c1OC(F)F [Compound 40, N-(4-(difluoromethoxy)-3,5-dimethylbenzyl)-3-isopropyl-1-methyl-1H-pyrazole-5-carboxamide] | 400 nM
40 | CCOc1c(Br)cc(CNC(=O)c2cc(C3CC3)nn2C)cc1OC [Compound 41, N-(3-bromo-4-ethoxy-5-methoxybenzyl)-3-cyclopropyl-1-methyl-1H-pyrazole-5-carboxamide] | 400 nM
41 | CCCOc1c(Cl)cc(CNC(=O)c2cc(C(C)C)nn2C)cc1OC [Compound 42, N-(3-chloro-4-propoxy-5-methoxybenzyl)-3-isopropyl-1-methyl-1H-pyrazole-5-carboxamide] | 200 nM
42 | CCOc1c(F)cc(CNC(=O)c2cc(C3CC3)nn2C)cc1Cl [Compound 43, N-(3-chloro-4-ethoxy-5-fluorobenzyl)-3-cyclopropyl-1-methyl-1H-pyrazole-5-carboxamide] | 400 nM
43 | CCOc1cc(F)c(CNC(=O)c2cc(C3CC3)nn2C)cc1Cl [Compound 44, N-(5-chloro-4-ethoxy-2-fluorobenzyl)-3-cyclopropyl-1-methyl-1H-pyrazole-5-carboxamide] | 400 nM
